# Assay results taken from paper PMC6803965, “A New Class of β–Pyrrolidino-1,2,3-Triazole Derivatives as β-Adrenergic Receptor Inhibitors: Synthesis, Pharmacological, and Docking Studies” (Molecules, 2019).
# Like-named read-outs stand apart in the source and are kept apart here.
# Key:
# Candida albicans = assay: Antimicrobial well method, zone of inhibition; format: cell-based; settings: 1 mg/well
# Procedure: (§1) Antimicrobial activity was carried out as described previously. Briefly, 20 mL of sterile Mueller Hinton agar (MHA) was poured in the petri plates and kept for solidification. After solidification, the test cultures were swabbed on the top of the media and kept for 10 min to dry. The required concentration (1 mg/well) of synthesized compounds 5a–l was added to each well and left for 30 min at RT for compound diffusion. Ketoconazole (fungi) and streptomycin (bacteria) used for positive controls. The zone of inhibition was recorded in mm and the experiment was repeated twice.
# Enterobacter aerogenes [1] = assay: Antimicrobial well method, zone of inhibition; format: cell-based; settings: Klebsiella aerogenes
# Procedure: as §1
# Klebsiella pneumoniae [2] = assay: Antimicrobial well method, zone of inhibition; format: cell-based
# Procedure: as §1
# Malassezia pachydermatis = assay: Antimicrobial well method, zone of inhibition; format: cell-based
# Procedure: as §1
# Micrococcus luteus [3] = assay: Antimicrobial well method, zone of inhibition; format: cell-based
# Procedure: as §1
# Proteus vulgaris [4] = assay: Antimicrobial well method, zone of inhibition; format: cell-based
# Procedure: as §1
# Salmonella paratyphi-B [5] = assay: Antimicrobial well method, zone of inhibition; format: cell-based
# Procedure: as §1
# Salmonella typhimurium [6] = assay: Antimicrobial well method, zone of inhibition; format: cell-based; settings: Salmonella enterica
# Procedure: as §1
# Shigella flexneri [7] = assay: Antimicrobial well method, zone of inhibition; format: cell-based
# Procedure: as §1
# [8] = test system: Staphylococcus aureus-MRSA; assay: Antimicrobial well method, zone of inhibition; format: cell-based
# Procedure: as §1
# Staphylococcus aureus [9] = assay: Antimicrobial well method, zone of inhibition; format: cell-based
# Procedure: as §1
# [10] = test system: Staphylococcus epidermidis; assay: Antimicrobial well method, zone of inhibition; format: cell-based
# Procedure: as §1
# Enterobacter aerogenes [11] = assay: Minimum inhibitory concentration (MIC); format: cell-based; settings: Klebsiella aerogenes, read-out: Minimum inhibitory concentration
# Procedure: (§2) The MIC experiment was carried out according to the standard reference methods. Briefly, the required concentrations of synthesized compounds 5a–l were dissolved in DMSO (Dimethylsulfoxide) in concentrations of 500 µg/mL, 250 µg/mL, 125 µg/mL, 62.5 µg/mL, 31.25 µg/mL, 15.6 µg/mL, and […]. An inoculum of 100 µL from each well (96-well plate) was inoculated. For the positive control, ketoconazole (fungi) and streptomycin (bacteria) was used. The MIC values for the tested bacteria were identified as the lowest inhibiting concentration of compound on the agar plate in visual growth.
# Klebsiella pneumoniae [12] = assay: Minimum inhibitory concentration (MIC); format: cell-based; settings: read-out: Minimum inhibitory concentration
# Procedure: as §2
# Micrococcus luteus [13] = assay: Minimum inhibitory concentration (MIC); format: cell-based; settings: read-out: Minimum inhibitory concentration
# Procedure: as §2
# Proteus vulgaris [14] = assay: Minimum inhibitory concentration (MIC); format: cell-based; settings: read-out: Minimum inhibitory concentration
# Procedure: as §2
# Salmonella paratyphi-B [15] = assay: Minimum inhibitory concentration (MIC); format: cell-based
# Procedure: as §2
# Salmonella typhimurium [16] = assay: Minimum inhibitory concentration (MIC); format: cell-based; settings: Salmonella enterica, read-out: Minimum inhibitory concentration
# Procedure: as §2
# Shigella flexneri [17] = assay: Minimum inhibitory concentration (MIC); format: cell-based
# Procedure: as §2
# [18] = test system: Staphylococcus aureus-MRSA; assay: Minimum inhibitory concentration (MIC); format: cell-based; settings: read-out: Minimum inhibitory concentration
# Procedure: as §2
# Staphylococcus aureus [19] = assay: Minimum inhibitory concentration (MIC); format: cell-based; settings: read-out: Minimum inhibitory concentration
# Procedure: as §2
# [20] = test system: Staphylococcus epidermidis; assay: Minimum inhibitory concentration (MIC); format: cell-based; settings: read-out: Minimum inhibitory concentration
# Procedure: as §2
# A549 cells = assay: Cytotoxicity, aqueous one solution reagent; format: cell-based; settings: for IC50: Homo sapiens, 24 h treatment, read-out: IC50 against A549
# Procedure: (§3) The cytotoxic study was carried out as reported previously. Briefly, IMR90, HepG-2, and A549 cells were grown in DMEM (Dulbecco’s Modified Eagle Medium) that contained 10% fetal bovine serum and 1% antibiotics. A total of 15 × 10^3 cells/well were seeded in 96-well plates and incubated under humidified conditions. Cells were treated with varying concentrations of synthesized triazoles for 24 h. After a 24 h treatment, 20 µL aqueous one solution reagent was added to each well and incubated for 3–4 h under a humidified condition. For IMR90 cells, MTT (MTT = 3-(4,5-dimethyl-2-thiazolyl)-2,5-diphenyl-2H-tetrazolium bromide) (5 mg/mL) was added and incubated for 3–4 h in the dark. After incubation, 100 µL of a 10% SDS (Sodium Dodecyl Sulfate) solution (0.01% HCl) was added to each well. The data was taken using an ELISA (enzyme-linked immunosorbent assay) reader at the absorbance of 490 nm for HepG-2 and A549 cells and 570 nm for IMR90 cells. The cell death was calculated using the following formula: Inhibition (%) = ((A − B)/A) × 100 (A—control group, B—treated group).
# HepG-2 cells = assay: Cytotoxicity, aqueous one solution reagent; format: cell-based; settings: for IC50: Homo sapiens, HepG2, 24 h treatment, read-out: IC50 against HepG-2
# Procedure: as §3
# IMR90 cells = assay: Cytotoxicity on normal cells, MTT; format: cell-based; settings: IMR-90, human normal IMR90 cells, 24 h treatment, read-out: IC50 against IMR90
# Procedure: as §3
# tested bacteria = assay: Antimicrobial well method, result in words; format: cell-based; settings: 1 mg/mL concentration
# Procedure: as §1
Compound,zone of inhibition at 1 mg/well (Enterobacter aerogenes [1]),zone of inhibition at 1 mg/well (Klebsiella pneumoniae [2]),zone of inhibition at 1 mg/well (Micrococcus luteus [3]),zone of inhibition at 1 mg/well (Proteus vulgaris [4]),zone of inhibition at 1 mg/well (Salmonella paratyphi-B [5]),zone of inhibition at 1 mg/well (Salmonella typhimurium [6]),zone of inhibition at 1 mg/well (Shigella flexneri [7]),zone of inhibition at 1 mg/well [8],zone of inhibition at 1 mg/well (Staphylococcus aureus [9]),zone of inhibition at 1 mg/well [10],MIC (Klebsiella pneumoniae [12]),MIC (Micrococcus luteus [13]),MIC (Proteus vulgaris [14]),MIC (Salmonella paratyphi-B [15]),MIC (Shigella flexneri [17]),MIC (Staphylococcus aureus [19]),MIC [20],cytotoxic / anticancer activity against A549 cells (A549 cells),IC50 (A549 cells),antimicrobial activity against tested bacteria (tested bacteria),other results
"C[C@@H]([C@@H](c1ccccc1)n1cc(CO)nn1)N1CCCC1 [5a, (1R,2S)-1-(1-(1-Phenyl-2-(pyrrolidin-1-yl)propyl)-1H-1,2,3-triazol-4-yl)methanol]",14 mm,20 mm,28 mm,17 mm,14 mm,14 mm,22 mm,13 mm,12 mm,14 mm,62.5 µg/mL,31.2 µg/mL,125 µg/mL,250 µg/mL,62.5 µg/mL,500 µg/mL,250 µg/mL,promising anticancer activity,190 ± 1.35 µM,promising activity,zone of inhibition (Candida albicans): 14 mm; zone of inhibition at 1 mg/well (Malassezia pachydermatis): 12 mm; MIC (Enterobacter aerogenes [11]; Enterobacter aerogenes): 250 µg/mL; MIC (Salmonella typhimurium [16]; Salmonella typhimurium): 250 µg/mL; MIC ([18]; Staphylococcus aureus-MRSA): 250 µg/mL; cytotoxic activity against HepG-2 cells (HepG-2 cells): moderate activity; IC50 (HepG-2 cells): 275 ± 1.52 µM; IC50 (IMR90 cells): > 250 µM
"C[C@@H]([C@@H](c1ccccc1)n1cc(COC(=O)c2ccccc2Cl)nn1)N1CCCC1 [5k, (1R,2S)-(1-(1-Phenyl-2-(pyrrolidin-1-yl)propyl)-1H-1,2,3-triazol-4-yl)methyl 2-chlorobenzoate]",22 mm,14 mm,,16 mm,18 mm,15 mm,17 mm,17 mm,18 mm,,250 µg/mL,,125 µg/mL,125 µg/mL,125 µg/mL,125 µg/mL,,,,promising activity,"MIC (Enterobacter aerogenes [11]; Enterobacter aerogenes): 62.5 µg/mL; MIC (Salmonella typhimurium [16]; Salmonella typhimurium): 250 µg/mL; MIC ([18]; Staphylococcus, MRSA): 125 µg/mL; melting point: 101 to 102 °C"
"Cc1cccc(C(=O)OCc2cn([C@H](c3ccccc3)[C@H](C)N3CCCC3)nn2)c1 [5j, (1R,2S)-(1-(1-Phenyl-2-(pyrrolidin-1-yl)propyl)-1H-1,2,3-triazol-4-yl)methyl 3-methylbenzoate]",,22 mm,16 mm,20 mm,18 mm,20 mm,22 mm,14 mm,15 mm,14 mm,62.5 µg/mL,125 µg/mL,62.5 µg/mL,125 µg/mL,62.5 µg/mL,250 µg/mL,250 µg/mL,promising anticancer activity,111 ± 1.82 µM,promising activity,zone of inhibition (Candida albicans): 13 mm; zone of inhibition at 1 mg/well (Malassezia pachydermatis): 11 mm; MIC (Salmonella typhimurium [16]; TYPHIMURIUM): 62.5 µg/mL; MIC ([18]; Staphylococcus aureus-MRSA): 250 µg/mL; IC50 (HepG-2 cells): > 300 µM; IC50 (IMR90 cells): > 250 µM
"COc1ccc(C(=O)OCc2cn([C@H](c3ccccc3)[C@H](C)N3CCCC3)nn2)cc1OC [5h, (1R,2S)-(1-(1-Phenyl-2-(pyrrolidin-1-yl)propyl)-1H-1,2,3-triazol-4-yl)methyl-3,4-dimethoxy-benzoate]",17 mm,20 mm,14 mm,23 mm,19 mm,22 mm,18 mm,20 mm,15 mm,16 mm,62.5 µg/mL,250 µg/mL,62.5 µg/mL,62.5 µg/mL,125 µg/mL,250 µg/mL,125 µg/mL,promising anticancer activity,58 ± 2.31 µM,promising activity,"MIC (Enterobacter aerogenes [11]): 125 µg/mL; MIC (Salmonella typhimurium [16]; TYPHIMURIUM): 62.5 µg/mL; MIC ([18]; Staphylococcus, MRSA): 62.5 µg/mL; IC50 (HepG-2 cells): 73 ± 3.88 µM; IC50 (IMR90 cells): > 250 µM"
"C[C@@H]([C@@H](c1ccccc1)n1cc(COC(=O)c2ccc([N+](=O)[O-])cc2)nn1)N1CCCC1 [5g, (1R,2S)-(1-(1-Phenyl-2-(pyrrolidin-1-yl)propyl)-1H-1,2,3-triazol-4-yl)methyl 4-nitrobenzoate]",22 mm,24 mm,17 mm,26 mm,20 mm,22 mm,25 mm,24 mm,16 mm,28 mm,31.2 µg/mL,125 µg/mL,31.2 µg/mL,62.5 µg/mL,31.2 µg/mL,125 µg/mL,31.2 µg/mL,promising anticancer activity,72 ± 3.21 µM,promising activity,"zone of inhibition (Candida albicans): 13 mm; MIC (Enterobacter aerogenes [11]): 62.5 µg/mL; MIC (Salmonella typhimurium [16]; TYPHIMURIUM): 62.5 µg/mL; MIC ([18]; Staphylococcus, MRSA): 31.2 µg/mL; IC50 (HepG-2 cells): > 300 µM; IC50 (IMR90 cells): > 250 µM"
